The values below come from EP4803630A1, “CELL FOR IDENTIFYING MAIT CELL LIGAND, AND METHOD FOR SCREENING MAIT CELL LIGAND USING SAID CELL” (The University of Osaka, priority 2023, dated 2025).

Assay [1] relates to TCR of MAIT cells. In words: co-expression reporter cell assay: NFAT-GFP expression on activation of MAIT TCR. In kind it is cell-based. The conditions noted are these: 37°C, 6-20 hr, GFP by flow cytometry. An excerpt: (§1) MAIT TCR genes and MR1 molecules genes were synthesized from mouse (Tiloy et al, J Exp Med. 1999) or human (4L4T, Protein Data Bank) and inserted into retroviral vectors (pMX-IRES-ratCD2, pMX-IRES-humanCD8), respectively. These plasmids were co-introduced into Phoenix packaging cells by using PEI MAX (Polysciences). […] MAIT TCR and MR1 co-expressing T cells (hereinafter also referred to as "co-expression reporter cells") were selected using antimouse TCRβ (H57-597), anti-human CD3 (HIT3a), and anti-human/mouse/rat MR1 (26.5) antibodies.
(§2) The validation experiment evaluated GFP expression and MR1 molecule surface expression 6 hr after stimulation of co-expression reporter cells with vehicle control, 5-OP-RU, and Ac-6-FP. GFP was evaluated by flow cytometry. MR1 molecule surface expression was represented by the MFI value of the stimulated cells.
(§3) In the above-mentioned screening, to stimulate "co-expression reporter cells," tissue extract samples and synthetic compounds were dissolved in water and added to each well of a 96-well plate in the absence of methylglyoxal. Some water-insoluble samples were dissolved in ethanol or chloroform/methanol (2:1, vol/vol) and coated onto the plates. "Co-expression reporter cells" (1-3×10^4 cells/100 µL/well) were cultured at 37°C for 6-20 hr, and the expression of GFP and MR1 molecules was analyzed by flow cytometry.

Assay [2] deals with MR1 molecule. In words: co-expression reporter cell assay: MR1 surface expression by flow cytometry. In kind it is cell-based. The settings on record: co-expression reporter cells, 37°C, 6-20 hr, MFI by flow cytometry. As to the method:
These plasmids were co-introduced into Phoenix packaging cells by using PEI MAX (Polysciences).
as §2, §3
(In general: Flow cytometry measures light scatter and fluorescence of single cells or particles in a stream.)

Assay [3] deals with Human peripheral blood mononuclear cells (PBMCs). In words: sc-TCR-RNA-seq analysis of stimulated PBMCs. In kind it is cell-based. The conditions noted are these: PBMCs stimulated for several days; for gene expression signature (induced genes): in contrast to 5-OP-RU; for TCR expressed by surviving MAIT cells: TRAV1-2-TRAJ33/12/20:TRBV6-4/6-1/20-1. As to the method: Human peripheral blood mononuclear cells (PBMCs) were stimulated with CA7S and CA3S for several days, and then sc-TCR-RNA-seq analysis was performed.

Assay [4] deals with MAIT TCRs derived from human (h). In words: reporter cell assay with human-derived MAIT TCR, mouse or human MR1. In kind it is cell-based. The settings on record: regardless of the species of the MR1 molecule.
Text: as §1
as §3, with “cytometry. The same procedure was performed in the subsequent Examples. • (2) To determine the chemical structure of the activation molecule contained in fraction #84, this fraction was further purified by hydrophilic interaction chromatography (HILIC), and a single fraction (named #84-45) was recovered. […]” for “cytometry.”

For assay [5], the system named is MAIT TCRs derived from mouse (m). In words: reporter cell assay with mouse-derived MAIT TCR, mouse or human MR1. The settings on record: regardless of the species of the MR1 molecule. In kind it is cell-based.
Text: as §1
as §3, with “cytometry. The same procedure was performed in the subsequent Examples. • (2) To determine the chemical structure of the activation molecule contained in fraction #84, this fraction was further purified by hydrophilic interaction chromatography (HILIC), and a single fraction (named #84-45) was recovered. […]” for “cytometry.”

Assay [6] concerns MAIT cells in MR1-5-OP-RU tetramer-enriched thymocytes. In words: flow cytometry of thymic MAIT cells after administration to Sult2a-deficient mice. The conditions noted are these: 2-4 week old Sult2a-deficient mice administered with CA7S versus not administered. In kind it is in vivo, mouse. As to the method: The expression of MAIT cells in MR1-5-OP-RU tetramer-enriched thymocytes was analyzed by flow cytometry in 2-4 week old wild-type mice, Sult2a-deficient mice administered with CA7S, and Sult2a-deficient mice not administered with CA7S.
The data were obtained from experiments using three or more mice per group. *P<0.05, **P<0.01, P***<0.005, one-way ANOVA and Tukey's multiple comparison test were used.

“Also recorded” adds a separate entry of the source.

Regarding `CC(=O)C=Nc1c(NC[C@H](O)[C@H](O)[C@H](O)CO)[nH]c(=O)[nH]c1=O` [Analog 5-OP-RU, 5-(2-Oxopropylidene-amino)-6-D-ribitylaminouracil, reference compound], the “activation of the TCR of MAIT cells (GFP expression)” value (from here on “activation of the TCR of MAIT cells”) in assay [1] is recorded as “dose-dependently enhanced GFP expression”.

Turning to `C[C@H](CCC(=O)O)[C@H]1CC[C@H]2[C@@H]3[C@H](O)C[C@@H]4C[C@H](OS(=O)(=O)O)CC[C@]4(C)[C@H]3C[C@H](O)[C@]12C` [CA3S, cholic acid 3-sulfate], the “expression of MR1 molecules on the T cell surface” value (“expression of MR1 molecules” below) in assay [2] is “similarly increased the expression of the MR1 molecule on the T cell surface”. In addition, the “activation of the TCR of MAIT cells” value in assay [1] was “activated MAIT reporter cells in the presence of MR1 molecules”. For the same compound, in assay [3], the “gene expression signature (induced genes)” value was “induced genes involved in homeostasis maintenance, such as IL7R, KLF2, and TCF7”; the “TCR expressed by surviving MAIT cells” value is recorded as “expressed a representative MAIT TCR”.

For the compound `C[C@H](CCC(=O)O)[C@H]1CC[C@H]2[C@@H]3[C@H](OS(=O)(=O)O)C[C@@H]4C[C@H](O)CC[C@]4(C)[C@H]3C[C@H](O)[C@]12C` [CA7S, cholic acid 7-sulfate], the “expression of MR1 molecules” value in assay [2] is “similarly increased the expression of the MR1 molecule on the T cell surface”. In addition, the “activation of the TCR of MAIT cells” value in assay [1] was “activated reporter cells expressing MAIT TCR; also recorded: weak agonist”. Also, in assay [4], the “activation of MAIT TCR derived from human (h)” value is “activated”. Moreover, in assay [5], the “activation of MAIT TCR derived from mouse (m)” value is given as “activated”. Further, in assay [3], the “gene expression signature (induced genes)” value is “induced genes involved in homeostasis maintenance, such as IL7R, KLF2, and TCF7”; the “TCR expressed by surviving MAIT cells” value is “expressed a representative MAIT TCR”. Also, the “MAIT cells in thymocytes” value in assay [6] is reported as “restored MAIT cells”.

On to `C[C@H](CCC(=O)O)[C@H]1CC[C@H]2[C@@H]3[C@H](O)C[C@@H]4C[C@H](O)CC[C@]4(C)[C@H]3C[C@H](OS(=O)(=O)O)[C@]12C` [CA12S], for which the “expression of MR1 molecules” value in assay [2] is on record as “similarly increased the expression of the MR1 molecule on the T cell surface”. The “activation of the TCR of MAIT cells” value in assay [1] is on record as “did not”.

As for `C[C@H](CCC(=O)O)[C@H]1CC[C@H]2[C@@H]3[C@H](O)C[C@@H]4C[C@H](O)CC[C@]4(C)[C@H]3C[C@H](O)[C@]12C` [CA, cholic acid, reference compound], the “expression of MR1 molecules” value in assay [2] is “did not activate”. Moreover, the “activation of the TCR of MAIT cells” value in assay [1] is listed as “did not activate”.

Take `C[C@H](CCC(=O)O)[C@H]1CC[C@H]2[C@@H]3CC[C@@H]4C[C@H](OS(=O)(=O)O)CC[C@]4(C)[C@H]3C[C@H](O)[C@]12C` [DCA3S, deoxy-CA3S, reference compound]: the “activation of the TCR of MAIT cells” value in assay [1] is “did not show activity in reporter cells”.

Take `C[C@H](CCC(=O)O)[C@H]1CC[C@H]2[C@@H]3CC[C@@H]4C[C@H](OS(=O)(=O)O)CC[C@]4(C)[C@H]3CC[C@]12C` [LCA3S, litho-CA3S, reference compound]: the “activation of the TCR of MAIT cells” value in assay [1] is “did not show activity in reporter cells”.

Take `C[C@H](CCC(=O)NCCS(=O)(=O)O)[C@H]1CC[C@H]2[C@@H]3[C@H](O)C[C@@H]4C[C@H](OS(=O)(=O)O)CC[C@]4(C)[C@H]3C[C@H](O)[C@]12C` [TCA3S]: the “expression of MR1 molecules” value in assay [2] is reported as “showed no activity”. In addition, in assay [1], the “activation of the TCR of MAIT cells” value is “showed no activity”.

`C[C@H](CCC(=O)NCCS(=O)(=O)O)[C@H]1CC[C@H]2[C@@H]3[C@H](OS(=O)(=O)O)C[C@@H]4C[C@H](O)CC[C@]4(C)[C@H]3C[C@H](O)[C@]12C` [TCA7S]: the “expression of MR1 molecules” value in assay [2] is “showed no activity”. Besides, the “activation of the TCR of MAIT cells” value in assay [1] is listed as “showed no activity”.

Consider `C[C@H](CCC(=O)NCCS(=O)(=O)O)[C@H]1CC[C@H]2[C@@H]3CC[C@@H]4C[C@H](OS(=O)(=O)O)CC[C@]4(C)[C@H]3CC[C@]12C` [TLCA3S, taurolitho-CA3S, reference compound], for which the “activation of the TCR of MAIT cells” value in assay [1] is reported as “did not show activity in reporter cells”.
